Read-outs that look alike come from different tables or passages of the source. e = 2'-O-(2-methoxyethyl) (MOE); d = 2'-deoxy (DNA)
Experiments:
[1] = rat, in vivo, sc, 50 mg/kg
[2] = mouse, in vivo, sc, 50 mg/kg
[3] = mouse, in vivo, sc, 50 mg/kg; remark: listed apart in the source
[4] = rat, in vivo, sc, 50 mg/kg; remark: listed apart in the source
[5] = mouse, in vivo, sc, 50 mg/kg; remark: listed apart in the source
[6] = rat, in vivo, sc, 50 mg/kg; remark: listed apart in the source

Substance | HCT [1] | Lymphocyte [1] | Neutrophil [1] | Platelets [1] | RBC [1] | WBC [1] | hemoglobin [1] | monocytes [1] | BUN [2] | HCT [3] | Lymphocyte [3] | Neutrophil [3] | Platelets [3] | RBC [3] | WBC [3] | hemoglobin [3] | ALT [4] | AST [4] | Albumin [4] | Bilirubin [4] | further results
ISIS 445498: 5-8-5 or 6-8-6 MOE microwalk gapmer (Table 44) (antisense GGTGCACAGTTTCTGGCAGG; sugars from the 5' end e6 d8 e6, backbone and methylation of C not given here) | 49% | 89% | 9% | 1061 nL⁻¹ | 8.5 pL⁻¹ | 13 nL⁻¹ | 14.7 g/dL | 2.0% | 28 mg/dL | 47% | 3241 | 1197 | 802 | 9.4 | 5 | 13.9 g/dL | 417 IU/L | 124 IU/L | 3.7 | 0.14 mg/dL | ALT [5]: 66 IU/L; AST [5]: 102 IU/L; Albumin [5]: 3.4; Bilirubin [5]: 0.24 mg/dL; BUN [6]: 25 mg/dL; Creatinine [6]: 0.5 mg/dL; Urine protein/creatinine ratio [6]: 3.1
ISIS 445530: 5-8-5 or 6-8-6 MOE microwalk gapmer (Table 44) (antisense GCATTGGTGCACAGTTTC; sugars from the 5' end e5 d8 e5, backbone and methylation of C not given here) | 50% | 87% | 11% | 1249 nL⁻¹ | 8.9 pL⁻¹ | 12 nL⁻¹ | 14.7 g/dL | 2.0% | 26 mg/dL | 50% | 5488 | 930 | 849 | 10.0 | 7 | 15.1 g/dL | 116 IU/L | 56 IU/L | 3.7 | 0.11 mg/dL | ALT [5]: 104 IU/L; AST [5]: 136 IU/L; Albumin [5]: 3.2; Bilirubin [5]: 0.18 mg/dL; BUN [6]: 22 mg/dL; Creatinine [6]: 0.4 mg/dL; Urine protein/creatinine ratio [6]: 4.2
ISIS 445509: 5-8-5 or 6-8-6 MOE microwalk gapmer (Table 44) (antisense CGGACGGCATTGGTGCACAG; sugars from the 5' end e6 d8 e6, backbone and methylation of C not given here) | 47% | 84% | 11% | 1115 nL⁻¹ | 8.4 pL⁻¹ | 17 nL⁻¹ | 14.1 g/dL | 3.8% | 29 mg/dL | 51% | 3758 | 1104 | 1085 | 10.2 | 5 | 15.3 g/dL | 676 IU/L | 291 IU/L | 3.5 | 0.14 mg/dL | ALT [5]: 80 IU/L; AST [5]: 117 IU/L; Albumin [5]: 3.1; Bilirubin [5]: 0.17 mg/dL; BUN [6]: 27 mg/dL; Creatinine [6]: 0.5 mg/dL; Urine protein/creatinine ratio [6]: 4.0

From patent publication US20230263822A1, “MODULATION OF FACTOR 11 EXPRESSION” (Ionis Pharmaceuticals, Inc., priority 2008, published 2023)
